Patent publication US9801922B2, “Compositions and methods of treating cancer” (UNIVERSITY OF IOWA RESEARCH FOUNDATION, priority 2011, dated 2017)

What was measured:
[1] = test system: normal human mammary epithelial cells (HMEC); assay: Clonogenic cell survival, HMEC; type: cell-based; conditions: 100 μM BSO, 1 μM DTPP 24 h, 500 nM AUR 15 min
Procedure: (§1) FIGS. 1A-D: BSO, DTPP and AUR treated SUM159, MDA-MB231 and HMEC Clonogenic survival. In Panel A (SUM 159), B (MDA-MB231) and C(HMEC), 150,000 cells/dish SUM159 or MDA-MB231 and 300,000 cells/dish were plated in 60 mm tissue culture dishes. After 48 hours, cells were given fresh complete HMECs media and treated with 100 μM BSO+/1 μM DTPP for 24 hours. 500 nM AUR were added 15 mins before the trypsinization of cells for clonogenic survival assay. In panel A-C, The error bars represent mean±1 SD of n=1 treatment dishes done in 3 separate experiments where each treatment dish was used to prepare 6-10 replicate cloning dishes for analysis. *p<0.001 as compared to Control. […] Mice growing Sum159 xenograft tumors were treated with 100 μM DTPP in drinking water for 2 weeks followed by i.p. injections of BSO 675 mg/kg followed in 2 hrs with Au 2.7 mg/kg. The day following injections tumors were harvested, digested and stained for ALDH positive cells. Each bar represents an average of at least three tumors. Error bars are SEM. *p<0.05 vs. control.
FIG. 2: BSO and AUR treated SUM159 dose response Clonogenic survival. 150,000 cells/dish SUM159 were plated in 60 mm tissue culture dishes. After 48 hours, cells were given fresh complete HMECs media and treated with 100 μM BSO 24 hours. 500 nM AUR were added 15 mins, 30 mins, 45 mins, 1 hr, 1.5 hrs and 3 hrs before the trypsinization. Cells were then collected and plated for clonogenic survival. […]
Clonogenic cell survival: To determine whether the DTPP exposure alters the cell proliferation in MDA-MB231, SUM159 and HMECs, 150,000 cells/dish of MDA-MB231 and SUM159 cells, and 300,000 cells/dish HMECs were plated in 60 mm tissue culture dishes. […] Attached and floating cells in the experimental dishes were collected after trypsinization with 1× trypsin-EDTA (CellGro, Herndon, Va., USA), centrifuged, resuspended in fresh media, and counted using a Coulter counter. […]

[2] = test system: SUM159 human breast cancer cells; assay: Clonogenic cell survival, SUM159; type: cell-based; conditions: for cytotoxicity (clonogenic survival), in words: 500 nM AUR 15 min
Procedure: as §1
FIG. 2: BSO and AUR treated SUM159 dose response Clonogenic survival. 150,000 cells/dish SUM159 were plated in 60 mm tissue culture dishes. After 48 hours, cells were given fresh complete HMECs media and treated with 100 μM BSO 24 hours. 500 nM AUR were added 15 mins, 30 mins, 45 mins, 1 hr, 1.5 hrs and 3 hrs before the trypsinization. Cells were then collected and plated for clonogenic survival. In panel A-C, The error bars represent mean±1 SD of n=1 treatment dishes done in 3 separate experiments where each treatment dish was used to prepare 6-10 replicate cloning dishes for analysis. *p<0.001 as compared to SUM159 Control. ^p<0.001 as compared to HMEC Control.
FIGS. 3A-3B: Clonogenic survival of SUM159 and MDA-MB231 cells treated with BSO, DTPP and AUR in the presence of 20 mM NAC. Asynchronously growing cultures of SUM159 (panel A) and MDA-MB231 (panel B) were plated as described in FIG. 1. After 48 hours, cells were given fresh complete HMECs media and treated with 100 μM BSO+/1 μM DTPP in the presence or absence of 20 mM NAC for 24 hours. 500 nM AUR were added 15 mins before the trypsinization. cells were then collected and plated for clonogenic survival. In panel A, B, The error bars represent mean±1SD of n=1 treatment dishes done in 3 separate experiments where each treatment dish was used to prepare 6-10 replicate cloning dishes for analysis. *p<0.001 as compared to W/O NAC Control. ^p<0.001 as compared to W/NAC Control.
FIG. 6: BSO, DTPP and AUR treated SUM159 in the presence of 100 U/ml PEGSOD+/PEGCAT Clonogenic survival. Asynchronously growing cultures of SUM159 were plated as described in FIG. 1. After 48 hours, cells were given fresh complete HMECs media and treated with 100 μM BSO+/1 μM DTPP in the presence or absence of PEGSOD+/PEGCAT (100 U/mL each) for 24 hours. Control received PEG alone (18 μM) for 24 hours. 500 nM AUR were added 15 mins before the trypsinization. Cells were then collected and plated for clonogenic survival. In panel A, B, The error bars represent mean±1 SD of n=1 treatment dishes done in 3 separate experiments where each treatment dish was used to prepare 6-10 replicate cloning dishes for analysis. *p<0.001 as compared to PEG alone Control. ^p<0.001 as compared to PEGCAT Control, $ p<0.001 as compared to PEGSOD+CAT Control.
Clonogenic cell survival: To determine whether the DTPP exposure alters the cell proliferation in MDA-MB231, SUM159 and HMECs, 150,000 cells/dish of MDA-MB231 and SUM159 cells, and 300,000 cells/dish HMECs were plated in 60 mm tissue culture dishes. After 48 hours, at 24 hours prior to each clonogenic survival experiment, media in all the dishes were changed to HMECs media and then treated with 100 μM BSO and 1 μM DTPP for 24 h. Cells were treated with AUR for 15 minutes prior to each clonogenic survival experiment. […]

| Structure (SMILES) | cytotoxicity (clonogenic survival), in words [1] | cytotoxicity (clonogenic survival), in words ([2]; 100 μM BSO, 1 μM DTPP 24 h) | survival fraction (of control cells) in the presence of NAC ([2]; 1 μM DTPP with 20 mM NAC, 24 hrs) | decrease in cell survival / survival fraction compared to control ([2]; 100 μM BSO and/or 1 μM DTPP for 24 hours) | clonogenic cell killing ([2]; 100 μM BSO, 1 μM DTPP 24 h, 500 nM AUR 15 min (FIG. 1A)) | clonogenic survival without PEGSOD+PEGCAT ([2]; PEG alone control) | clonogenic survival with PEGSOD+PEGCAT ([2]; PEGSOD+PEGCAT 100 U/ml each) |
| --- | --- | --- | --- | --- | --- | --- | --- |
| CC[PH](CC)(CC)[Au][S][C@@H]1O[C@H](COC(C)=O)[C@@H](OC(C)=O)[C@H](OC(C)=O)[C@H]1OC(C)=O [AUR, S-triethylphosphinegold(I)-2,3,4,6-tetra-O-acetyl-1-thio-β-D-glucopyranoside] | did not cause any significant cytotoxicity | did not cause any significant cytotoxicity | – | – | – | – | – |
| CCCCS(=N)(=O)CCC(N)C(=O)O [BSO, L-buthionine-[S,R]-sulfoximine, reference compound] | did not cause any significant cytotoxicity | did not cause significantly cytotoxicity | – | – | – | – | – |
| CCCCCCCCCC[P+](c1ccccc1)(c1ccccc1)c1ccccc1 [DTPP, Decyl-Triphenylphosphonium] | did not cause any significant cytotoxicity | – | at least 70% | 70%-80% | at least 70% | 35% | 70% |
